Measured values from US8956445B2, “High stability diionic liquid salts” (Sigma-Aldrich Co., priority 2004, dated 2015).
Read-outs that look alike come from different tables or passages of the source.

Experiments:
[1] = Surface tension (DuNuoy Tensiometer); format: physicochemical; settings: room temperature (23° C.)
[2] = Density (2.0 mL volumetric tube, weighing by difference); format: physicochemical; settings: 23° C.
Procedure: (§1) The densities of the ionic liquids or, more correctly, […] (used synonymously except as indicated otherwise explicitly or by context) was determined at 23° C. by placing 2.0 mL of the ionic liquid in a 2.0 mL volumetric tube and weighing by difference. The melting points of the ionic liquids were determined using a Perkin Elmer Pyris 1 Differential Scanning calorimeter (Boston, Mass.). Typical methods involved using a 10° C./min temperature ramp to determine and identify the first and second order thermal transitions. […] For solid compounds, the melting points were verified using a capillary melting point apparatus. Refractive index measurements were conducted at 23° C. using a Bausch & Lomb Abbe-3L refractometer.

[3] = Refractive index (Abbe-3L refractometer); format: physicochemical; settings: 23° C.
Procedure: as §1

[4] = remark: listed apart in the source
Procedure: Thermal stabilities were measured by immobilizing an approximate 0.15-0.20 microns film of the ionic liquid on the inner wall of a fused silica capillary. The capillary was then heated slowly in an oven and a very sensitive flame ionization detector (or mass spectrometer) used to detect any volatilization or decomposition of the ionic liquid. There are several advantages of using this set-up to measure the thermal stabilities of ionic liquids. The thermal stability is measured in the absence of oxygen by purging the capillary with a continuous flow of an inert gas such as helium, hydrogen, or nitrogen. […] Finally, this approach can use mass spectrometry detection to determine the likely volatilization/decomposition products.

[5] = values taken from reference 31, cited from earlier work

SMILES | Surface Tension [1] [dynes/cm] | Density [2] [g/mL] | Refractive Index [3] | Miscibility with Heptane | Miscibility with Water | further results
CCCCn1cc[n+](CCCCCCCCC[n+]2ccn(CCCC)c2)c1.O=S(=O)([N-]S(=O)(=O)C(F)(F)F)C(F)(F)F.O=S(=O)([N-]S(=O)(=O)C(F)(F)F)C(F)(F)F [C9(bim)2-NTf2, 1,9-di(3-butylimidazolium)nonane di-bis[(trifluoromethyl)sulfonyl]imidate] | 38.0 | 1.35 | 1.446 | Immiscible | Immiscible | –
CCCC[N+]1(CCCCCCCCC[N+]2(CCCC)CCCC2)CCCC1.O=S(=O)([N-]S(=O)(=O)C(F)(F)F)C(F)(F)F.O=S(=O)([N-]S(=O)(=O)C(F)(F)F)C(F)(F)F [C9(bpy)2-NTf2, 1,9-di(butylpyrrolidinium)nonane di-bis[(trifluoromethyl)sulfonyl]imida] | – | – | – | Immiscible | Immiscible | thermal stability (volatilization/decomposition temperature) [4]: 330 °C
CCCCn1cc[n+](C)c1.O=S(=O)([N-]S(=O)(=O)C(F)(F)F)C(F)(F)F [BMIM—NTf2, 1-butyl-3-methylimidazolium bis[(trifluoromethylsulfonyl)imide]] | – | – | – | – | – | thermal stability (volatilization/decomposition temperature) ([4]; 0.15-0.20 micron film in fused silica capillary, helium flow, FID, tested only up to 400° C.): 185 °C; a (hydrogen bond basicity) ([5]; 40° C.): 2.02; b (hydrogen bond acidity) ([5]; 40° C.): 0.36; c (interaction parameter table, constant) ([5]; 40° C.): −2.87; l (dispersion forces) ([5]; 40° C.): 0.63; r (interaction via nonbonding and π-electrons) ([5]; 40° C.): 0; s (dipolarity/polarizability) ([5]; 40° C.): 1.89; a (hydrogen bond basicity) ([5]; 70° C.): 1.75; b (hydrogen bond acidity) ([5]; 70° C.): 0.38; c (interaction parameter table, constant) ([5]; 70° C.): −3.03; l (dispersion forces) ([5]; 70° C.): 0.56; r (interaction via nonbonding and π-electrons) ([5]; 70° C.): 0; s (dipolarity/polarizability) ([5]; 70° C.): 1.67; a (hydrogen bond basicity) ([5]; 100° C.): 1.55; b (hydrogen bond acidity) ([5]; 100° C.): 0.24; c (interaction parameter table, constant) ([5]; 100° C.): −3.13; l (dispersion forces) ([5]; 100° C.): 0.49; r (interaction via nonbonding and π-electrons) ([5]; 100° C.): 0; s (dipolarity/polarizability) ([5]; 100° C.): 1.60
Cn1cc[n+](CCC[n+]2ccn(C)c2)c1.O=S(=O)([N-]S(=O)(=O)C(F)(F)F)C(F)(F)F.O=S(=O)([N-]S(=O)(=O)C(F)(F)F)C(F)(F)F [C3(mim)2-NTf2, 1,3-di(3-methylimidazolium)propane di-bis[(trifluoromethyl)sulfonyl]imidate] | 44.7 | 1.61 | 1.440 | Immiscible | Immiscible | –
CCCCn1cc[n+](CCCCCCCCC[n+]2ccn(CCCC)c2)c1.F[P-](F)(F)(F)(F)F.F[P-](F)(F)(F)(F)F [C9(bim)2-PF6, 1,9-di(3-butylimidazolium)nonane di-hexafluorophosphate] | 48.0 | 1.30 | 1.439 | Immiscible | Immiscible | –
F[P-](F)(F)(F)(F)F.F[P-](F)(F)(F)(F)F.c1ccc(Cn2cc[n+](CCCCCCCCCCCC[n+]3ccn(Cc4ccccc4)c3)c2)cc1 [C12(benzim)2-PF6, 1,12-di(3-benzylimidazolium)dodecane di-hexafluorophosphate] | 47.4 | 1.27 | 1.484 | Immiscible | Immiscible | –
Cn1cc[n+](CCCCCCCCC[n+]2ccn(C)c2)c1.F[B-](F)(F)F.F[B-](F)(F)F [C9(mim)2-BF4, 1,9-di(3-methylimidazolium)nonane di-tetrafluoroborate] | 61.2 | 1.33 | 1.469 | Immiscible | Miscible | –
Cn1cc[n+](CCCCCC[n+]2ccn(C)c2)c1.O=S(=O)([N-]S(=O)(=O)C(F)(F)F)C(F)(F)F.O=S(=O)([N-]S(=O)(=O)C(F)(F)F)C(F)(F)F [C6(mim)2-NTf2, 1,6-di(3-methylimidazolium)hexane di-bis[(trifluoromethyl)sulfonyl]imida] | 44.2 | 1.52 | 1.441 | Immiscible | Immiscible | –
Cc1n(C)cc[n+]1CCCCCCCCC[n+]1ccn(C)c1C.O=S(=O)([N-]S(=O)(=O)C(F)(F)F)C(F)(F)F.O=S(=O)([N-]S(=O)(=O)C(F)(F)F)C(F)(F)F [C9(m2im)2-NTf2, 1,9-di(2,3-dimethylimidazolium)nonane di-bis[(trifluoromethyl)sulfonyl]imidate] | 43.5 | 1.47 | 1.448 | Immiscible | Immiscible | –
